Measured values as given in PMC8911826, “Design of Oligourea-Based Foldamers with Antibacterial and Antifungal Activities” (Molecules, 2022).
Converted amounts (≈) assume the structure as drawn. Where two headings read alike, the source gives them in different places. Marks after values point to notes of the source that are not given here.

Assays:
[1] = system: S. aureus ATCC 25923; type: cell-based, Staphylococcus aureus
Description: (§1) Staphylococcus aureus (S. aureus, ATCC 25923), Staphylococcus aureus S1 Methicillin Resistant (MRSA; this strain was kindly provided by Dr Gilles Prévost, University of Strasbourg), Escherichia coli (E. coli, ATCC 25922), and Pseudomonas aeruginosa (P. aeruginosa, ATCC 27853) strains were used to assess the antibacterial properties of the samples. Bacterial strain was cultured aerobically at 37 °C in Mueller–Hinton broth (MHB) medium (Merck, Germany), pH 7.4. One colony was transferred to 10 mL of MHB medium and incubated at 37 °C for 20 h. To obtain bacteria in the mid logarithmic phase of growth, the absorbance at 620 nm of overnight culture was adjusted to 0.001, corresponding to a final density of 5 × 10^5 CFU/mL. Ninety percent of this culture was incubated with 10% of the test compound at different concentrations. The positive control was composed of 90% bacterial suspension and 10% a mixture of antibiotics (tetracycline: 10 μg/mL and cefotaxime: 0.1 μg/mL in PBS). The negative control was composed of 90% of the bacterial suspension and 10% of PBS, corresponding to our 100% growth.
(§2) In order to test the influence of serum on the minimal inhibitory concentration (MIC), we added 10% decomplemented fetal bovine serum or 50% nondecomplemented fetal bovine serum in MHB medium. After 24 h of incubation at 37 °C with shaking, the optical density at 620 nm of each well was measured. The smallest concentration for which bacterial growth is 0% corresponds to the MIC of the tested compound.

[2] = system: Staphylococcus aureus S1 Methicillin Resistant (MRSA); type: cell-based
Description: as §1, §2

[3] = system: P. aeruginosa ATCC 27853; type: cell-based, Pseudomonas aeruginosa; settings: for MIC, P. aeruginosa ATCC 27853: MHB medium pH 7.4, 24 h, 100 μL, 5 × 10^5 CFU/mL, OD 620 nm, lowest concentration with 0% growth, mean of 3 samples
Description: as §1, §2

[4] = system: E. coli ATCC 25922; type: cell-based, Escherichia coli
Description: as §1, §2

[5] = system: C. albicans ATCC 18804; experiment: Antifungal MIC assay in SAB, C. albicans; type: cell-based, Candida albicans
Description: The Candida albicans (C. albicans, ATCC 18804) strain was used to assess the antifungal properties of the samples. Briefly, C. albicans was cultured aerobically at 30 °C in Sabouraud dextrose broth (SAB) medium (Becton Dickinson, Voisins le Bretonneux, France). One colony was then transferred to 10 mL of SAB medium and incubated at 30 °C for 20 h. The absorbance at 620 nm of overnight culture was adjusted to 0.001 and the tests were performed under the same conditions as those used for bacteria, with the exception of the temperature (30 °C instead of 37 °C) and the culture medium (SAB instead of MHB).

[6] = system: Aspergillus fumigatus 098; experiment: Antifungal assay on spores, growth evaluated by microscopy; type: cell-based; settings: 30 °C, 24 h without agitation, n = 3
Description: Aspergillus fumigatus strain (A. fumigatus, ASPFU098 from Dynamique des interactions hôte pathogène (DIHP) laboratory—EA 7292, Strasbourg) were tested to evaluate the antifungal properties of foldamers. Spores were resuspended at a concentration of 10^3 spores/mL in Sabouraud dextrose broth medium. Test samples were incubated with 90 μL of fungal spores. The suspension was incubated at 30 °C for 24 h without agitation. Fungal growth was monitored microscopically after 24 h. Media alone was used as negative control and corresponds to 100% fungal growth; voriconazole (50 μg/mL) was used as a positive control and corresponds to 100% growth inhibition.

[7] = system: MDA-MB-231 cells; settings: 24 h
Description: (§3) We used the human breast cancer cell line MDA-MB-231. The cells were cultured using RPMI that was supplemented with 100 units/mL penicillin, 100 µg/mL streptomycin, and 10% of fetal calf serum (FCS from HyClone, Fischer Scientific, Illkirch, France). The MDA-MB-231 cells were plated in 48-well plates one day before the experiments were conducted. The cell confluence was around 60% the day of the assay.
The cell viability was determined on MDA-MB-231 cells by performing the MTS assay (3-(4,5-dimethylthiazol-2-yl)-5-(3-carboxymethoxyphenyl)-2-(4-sulfophenyl)-2H-tetrazolium salt) (CellTiter 96® AQueous One Solution Cell Proliferation Assay from Promega). This assay was performed using biological triplicates (same amount of foldamer were added to 3 different wells). Increasing amounts of foldamer diluted in 250 μL/well of RPMI 10% FCS were added to the cells. After 24 h of incubation, the culture medium was removed and replaced with 300 μL/well of RPMI 10% FCS containing the MTS reagent (50 μL/well). After incubation at 37 °C for 1 h and 10 min, 200 μL of medium were withdrawn and used to measure the absorbance at 490 nm (and 680 nm for background). Untreated cells were used as control (100% of cell viability).

[8] = system: MDA-MB-231 cells
Description: as §3
The membrane permeabilization activity was measured as the leakage of lactate dehydrogenase (LDH) from the cells. […] Thereby, foldamers were incubated with MDA-MB-231 cells and after incubation at 37 °C for 1 h and 10 min, an aliquot (50 μL) of the supernatant of each well was used for the measurement of the LDH activity. […] The LDH release was measured using a commercially available kit (CytoTox-ONE membrane integrity assay from Promega). Untreated cells were used as control. The value of 100% LDH release was obtained by using cells treated with a lysis buffer. Absorbance was measured at 490 nm (and at 680 nm for background).

[9] = system: S. aureus; settings: 50% bovine serum; cited from earlier work
[10] = MHB medium pH 7.4, 24 h, 37 °C, 100 μL, 5 × 10^5 CFU/mL, OD 620 nm, lowest concentration with 0% growth, mean of 3 samples
[11] = Table S2, MIC of Table 1 in μM, MHB, 24 h, 37 °C

Row | Compound | MIC, S. aureus 25923 ([1]; ATCC 25923, 24 h) | MIC, S. aureus ATCC 25923 [1, 10] | MIC, MRSA [2, 10] | MIC, MRSA ([2]; S1 Methicillin Resistant, 24 h) | MIC, P. aeruginosa 27853 ([3]; ATCC 27853, 24 h) | MIC, P. aeruginosa ATCC 27853 ([3]; 37 °C) | MIC, E. coli 25922 ([4]; ATCC 25922, 24 h) | MIC, E. coli ATCC 25922 [4, 10] | MIC, C. albicans 18804 ([5]; ATCC 18804, 24 h) | other results
1 | CC(C)[C@H](N)CNC(=O)N[C@H](CNC(=O)N[C@H](CNC(=O)N[C@H](CNC(=O)N[C@@H](CCCNC(=N)N)CNC(=O)N[C@H](CNC(=O)N[C@@H](CCCNC(=N)N)CNC(=O)N[C@H](CCC(N)=O)C(C)C)Cc1c[nH]c2ccccc12)C(C)C)Cc1c[nH]c2ccccc12)Cc1c[nH]cn1 [OL-1] | 9.14 μΜ | 12.5 * μg/mL | 50 µg/mL (≈ 36.6 µM) | 36.56 μΜ | 9.14 μΜ | 12.5 µg/mL (≈ 9.14 µM) | 9.14 μΜ | 12.5 µg/mL (≈ 9.14 µM) | 12.5 µg/mL (≈ 9.14 µM) | 
2 | CC(C)NC(=O)N[C@H](CNC(=O)N[C@H](CNC(=O)N[C@H](CNC(=O)N[C@H](CNC(=O)N[C@@H](CCCNC(=N)N)CNC(=O)N[C@H](CNC(=O)N[C@@H](CCCNC(=N)N)CNC(=O)N[C@H](CCC(N)=O)C(C)C)Cc1c[nH]c2ccccc12)C(C)C)Cc1c[nH]c2ccccc12)Cc1c[nH]cn1)C(C)C [OL-2] | 4.3 μΜ | 6.25 µg/mL (≈ 4.3 µM) | 12.5 µg/mL (≈ 8.6 µM) | 8.6 μΜ | 17.2 μΜ | 25 µg/mL (≈ 17.2 µM) | 4.3 μΜ | 6.25 µg/mL (≈ 4.3 µM) | 12.5 µg/mL (≈ 8.6 µM) | 
3 | CC(C)NC(=O)N[C@@H](CCCNC(=N)N)CNC(=O)N[C@H](CNC(=O)N[C@H](CNC(=O)N[C@H](CNC(=O)N[C@H](CNC(=O)N[C@H](CNC(=O)N[C@H](CNC(=O)N[C@@H](CCCNC(=N)N)CNC(=O)N[C@H](CCC(N)=O)C(C)C)Cc1c[nH]c2ccccc12)Cc1c[nH]cn1)C(C)C)Cc1c[nH]c2ccccc12)Cc1c[nH]cn1)C(C)C [OL-4] |  | 6.25 µg/mL (≈ 3.86 µM) | 6.25 µg/mL (≈ 3.86 µM) |  |  | 50 µg/mL (≈ 30.9 µM) |  | 6.25 µg/mL (≈ 3.86 µM) |  | MIC, S. aureus 25923 [1, 11]: 3.86 μΜ; MIC, MRSA [2, 11]: 3.86 μΜ; MIC, P. aeruginosa 27853 [3, 11]: 30.88 μΜ; MIC, E. coli 25922 [4, 11]: 3.86 μΜ; MIC, C. albicans 18804 ([5]; Sabouraud dextrose broth (SAB), 24 h, 30 °C, 100 μL, OD 620 nm, n = 3): 12.5 µg/mL (≈ 7.72 µM)
4 | CC(=O)N[C@@H](CCCCN)C(=O)N[C@@H](Cc1c[nH]cn1)C(=O)N[C@@H](CCCCN)C(=O)N[C@@H](Cc1c[nH]cn1)C(=O)N[C@@H](CCCCN)C(=O)N[C@@H](C)CNC(=O)N[C@H](CNC(=O)N[C@@H](C)CNC(=O)N[C@H](CNC(N)=O)Cc1c[nH]c2ccccc12)Cc1c[nH]c2ccccc12 [OL-6] |  |  |  |  |  |  |  |  |  | MIC, S. aureus ATCC 25923 ([1]; ATCC 25923, 24 h, pH 7.4): ≥ 100 µg/mL; MIC, E. coli ATCC 25922 ([4]; ATCC 25922, 24 h, pH 7.4): ≥ 100 µg/mL
5 | CC(=O)N[C@@H](CCCNC(=N)N)C(=O)N[C@@H](Cc1c[nH]cn1)C(=O)N[C@@H](CCCNC(=N)N)C(=O)N[C@@H](Cc1c[nH]cn1)C(=O)N[C@@H](CCCNC(=N)N)C(=O)N[C@H](CNC(=O)N[C@H](CNC(=O)N[C@H](CNC(=O)N[C@H](CNC(N)=O)Cc1c[nH]c2ccccc12)C(C)C)Cc1c[nH]c2ccccc12)C(C)C [OL-7] |  |  |  |  |  |  |  |  |  | MIC, S. aureus ATCC 25923 ([1]; ATCC 25923, 24 h, pH 7.4): ≥ 100 µg/mL; MIC, E. coli ATCC 25922 ([4]; ATCC 25922, 24 h, pH 7.4): ≥ 100 µg/mL
6 | C[C@@H](c1ncncc1F)[C@](O)(Cn1cncn1)c1ccc(F)cc1F [Voriconazole, reference compound] |  |  |  |  |  |  |  |  |  | MIC ([6]; Aspergillus fumigatus, 098, spores in Sabouraud dextrose broth): 12.5 µg/mL (≈ 35.8 µM)
7 | Pexiganan |  |  |  |  |  |  |  |  |  | Loss of activity in the presence of serum [9]: 32 fold

More lines, main results first:

Row | MIC, S. aureus 25923 ([1]; ATCC 25923, 24 h) | MIC, S. aureus ATCC 25923 [1, 10] | MIC, MRSA [2, 10] | MIC, MRSA ([2]; S1 Methicillin Resistant, 24 h) | MIC, P. aeruginosa 27853 ([3]; ATCC 27853, 24 h) | MIC, P. aeruginosa ATCC 27853 ([3]; 37 °C) | MIC, E. coli 25922 ([4]; ATCC 25922, 24 h) | MIC, E. coli ATCC 25922 [4, 10] | MIC, C. albicans 18804 ([5]; ATCC 18804, 24 h) | Compound | other results
8 | 8.7 μΜ | 12.5 µg/mL (≈ 8.72 µM) | 12.5 µg/mL (≈ 8.72 µM) | 8.7 μΜ | 34.8 μΜ | 50 µg/mL (≈ 34.9 µM) | 8.7 μΜ | 12.5 µg/mL (≈ 8.72 µM) | 12.5 µg/mL (≈ 8.72 µM) | CC(C)NC(=O)N[C@H](CNC(=O)N[C@H](CNC(=O)N[C@H](CNC(=O)N[C@H](CNC(=O)N[C@H](CNC(=O)N[C@H](CNC(=O)N[C@@H](CCCNC(=N)N)CNC(=O)N[C@H](CCC(N)=O)C(C)C)Cc1c[nH]c2ccccc12)Cc1c[nH]cn1)C(C)C)Cc1c[nH]c2ccccc12)Cc1c[nH]cn1)C(C)C [OL-3] | MIC towards MRSA in the presence of 10% serum versus without ([2]; MHB supplemented with 10% decomplemented fetal calf serum, 24 h, 37 °C, mean of three samples): remained unaffected; Change of MIC towards MRSA in the presence of 50% serum ([2]; MHB supplemented with 50% nondecomplemented fetal calf serum, 24 h, 37 °C, mean of three samples): two to four-fold; MIC, Aspergillus fumigatus 098 ([6]; spores in Sabouraud dextrose broth): below 50 μg/mL; IC50, cell viability (MTS) [7]: about 50 μg/mL; LDH leakage / alteration of the membranes [8]: least cytotoxic foldamer towards mammalian cells
9 | 8.5 μΜ | 12.5 µg/mL (≈ 8.49 µM) | 6.25 µg/mL (≈ 4.25 µM) | 4.25 μΜ | 8.5 μΜ | 12.5 µg/mL (≈ 8.49 µM) | 4.25 μΜ | 6.25 µg/mL (≈ 4.25 µM) | 6.25 µg/mL (≈ 4.25 µM) | CC(C)NC(=O)N[C@H](CNC(=O)N[C@@H](CCCNC(=N)N)CNC(=O)N[C@H](CNC(=O)N[C@H](CNC(=O)N[C@@H](CCCNC(=N)N)CNC(=O)N[C@H](CNC(=O)N[C@@H](CCCNC(=N)N)CNC(=O)N[C@H](CCC(N)=O)C(C)C)Cc1c[nH]c2ccccc12)C(C)C)Cc1c[nH]c2ccccc12)C(C)C [OL-5] | 
